Read-outs that look alike come from different tables or passages of the source.
What was measured:
Format in all cases: biochemical
[1] = molecular target: PI3K α (Homo sapiens (Human), UniProt P42336); experiment: PI 3-Kinase (human) HTRF assay, p110α/p85α
[2] = molecular target: PI3K β (Homo sapiens (Human), UniProt P42338); experiment: PI 3-Kinase (human) HTRF assay, p110β/p85α
Method: (§1) An exemplary system is PI 3-Kinase (human) HTRF™ Assay from Upstate. […] Briefly, the assay is a time resolved FRET assay that indirectly measures PIP3 product formed by the activity of a PI3-K. The kinase reaction is performed in a microtitre plate (e.g., a 384 well microtitre plate). The total reaction volume is approximately 20 ul per well. In the first step, each well receives 2 ul of test compound in 20% dimethylsulphoxide resulting in a 2% DMSO final concentration. Next, approximately 14.5 ul of a kinase/PIP2 mixture (diluted in 1× reaction buffer) is added per well for a final concentration of 0.25-0.3 ug/ml kinase and 10 μM PIP2. The plate is sealed and incubated for 15 minutes at room temperature. To start the reaction, 3.5 ul of ATP (diluted in 1× reaction buffer) is added per well for a final concentration of 10 μM ATP. The plate is sealed and incubated for 1 hour at room temperature. The reaction is stopped by adding 5 ul of Stop Solution per well and then 5 ul of Detection Mix is added per well. The plate is sealed, incubated for 1 hour at room temperature, and then read on an appropriate plate reader. Data is analyzed and IC50s are generated using GraphPad Prism 5. For PI3K α, β, δ, and γ, the nM concentration of inhibitor to reach IC50 is provided.

[3] = molecular target: PI3K δ (Homo sapiens (Human), UniProt O00329); experiment: PI 3-Kinase (human) HTRF assay, p110δ/p85α
PI3K δ, sequence (O00329 whole entry): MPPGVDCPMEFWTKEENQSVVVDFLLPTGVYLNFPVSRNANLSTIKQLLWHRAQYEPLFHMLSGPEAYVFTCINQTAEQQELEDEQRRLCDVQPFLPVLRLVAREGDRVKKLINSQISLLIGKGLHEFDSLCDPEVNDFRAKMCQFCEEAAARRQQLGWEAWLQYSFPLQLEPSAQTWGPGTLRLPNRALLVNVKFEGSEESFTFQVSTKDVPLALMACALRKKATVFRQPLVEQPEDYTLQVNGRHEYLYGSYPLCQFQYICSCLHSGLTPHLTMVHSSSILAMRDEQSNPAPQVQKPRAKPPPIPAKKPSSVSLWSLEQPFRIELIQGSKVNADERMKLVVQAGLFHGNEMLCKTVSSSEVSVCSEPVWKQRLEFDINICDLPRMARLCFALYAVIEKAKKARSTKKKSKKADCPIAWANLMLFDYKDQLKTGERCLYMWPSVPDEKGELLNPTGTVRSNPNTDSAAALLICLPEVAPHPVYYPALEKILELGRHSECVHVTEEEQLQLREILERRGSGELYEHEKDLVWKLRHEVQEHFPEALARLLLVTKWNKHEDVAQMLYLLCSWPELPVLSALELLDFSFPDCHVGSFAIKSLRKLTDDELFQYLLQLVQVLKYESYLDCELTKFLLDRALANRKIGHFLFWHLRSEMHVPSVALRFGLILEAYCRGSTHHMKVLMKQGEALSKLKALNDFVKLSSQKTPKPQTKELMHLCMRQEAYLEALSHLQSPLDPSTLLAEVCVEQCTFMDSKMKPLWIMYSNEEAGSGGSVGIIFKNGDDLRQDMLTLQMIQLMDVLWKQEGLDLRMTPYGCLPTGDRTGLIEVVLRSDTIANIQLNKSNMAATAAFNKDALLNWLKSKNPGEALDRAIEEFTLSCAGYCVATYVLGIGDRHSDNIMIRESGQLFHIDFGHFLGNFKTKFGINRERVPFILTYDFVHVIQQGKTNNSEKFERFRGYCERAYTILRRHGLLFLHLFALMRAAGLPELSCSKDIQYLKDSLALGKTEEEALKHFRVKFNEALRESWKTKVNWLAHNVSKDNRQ
PI3K δ, sequence (P27986 whole entry partner): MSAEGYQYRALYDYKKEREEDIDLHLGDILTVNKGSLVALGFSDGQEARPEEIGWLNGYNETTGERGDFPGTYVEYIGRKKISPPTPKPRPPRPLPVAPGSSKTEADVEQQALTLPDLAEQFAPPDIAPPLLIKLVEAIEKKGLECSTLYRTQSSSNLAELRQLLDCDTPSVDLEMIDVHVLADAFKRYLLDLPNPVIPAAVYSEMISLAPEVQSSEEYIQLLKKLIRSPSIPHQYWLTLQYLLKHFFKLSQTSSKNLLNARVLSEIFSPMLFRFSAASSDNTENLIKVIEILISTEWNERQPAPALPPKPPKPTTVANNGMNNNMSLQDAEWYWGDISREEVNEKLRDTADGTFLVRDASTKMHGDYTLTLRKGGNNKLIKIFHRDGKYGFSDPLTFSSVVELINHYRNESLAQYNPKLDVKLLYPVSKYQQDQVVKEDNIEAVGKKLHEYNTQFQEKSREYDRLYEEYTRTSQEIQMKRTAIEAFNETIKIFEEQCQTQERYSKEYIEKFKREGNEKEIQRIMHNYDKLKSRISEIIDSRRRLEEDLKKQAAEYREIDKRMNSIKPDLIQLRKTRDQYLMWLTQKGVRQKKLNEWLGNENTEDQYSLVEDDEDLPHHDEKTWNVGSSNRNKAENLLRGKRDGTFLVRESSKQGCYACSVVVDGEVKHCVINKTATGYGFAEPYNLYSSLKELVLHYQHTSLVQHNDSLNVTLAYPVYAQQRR
Method: as §1

[4] = molecular target: mTORC (Homo sapiens (Human), UniProt P42345); experiment: mTOR inhibition assay (radiometric or LanthaScreen TR-FRET)
Method: The compounds described herein can be tested against recombinant mTOR (Invitrogen) in an assay containing 50 mM HEPES, pH 7.5, 1 mM EGTA, 10 mM MgCl2, 2.5 mM, 0.01% Tween, 10 μM ATP (2.5 μCi of μ-32P-ATP), and 3 μg/mL BSA. Rat recombinant PHAS-1/4EBP1 (Calbiochem; 2 mg/mL) is used as a substrate. Reactions are terminated by spotting onto nitrocellulose, which is washed with 1M NaCl/1% phosphoric acid (approximately 6 times, 5-10 minutes each). Sheets are dried and the transferred radioactivity quantitated by phosphorimaging.
For instance, one can use Invitrogen's LanthaScreen™ Kinase assay to test the inhibitors of mTOR disclosed herein. This assay is a time resolved FRET platform that measures the phosphorylation of GFP labeled 4EBP1 by mTOR kinase. The kinase reaction is performed in a white 384 well microtitre plate. The total reaction volume is 20 ul per well and the reaction buffer composition is 50 mM HEPES pH7.5, 0.01% Polysorbate 20, 1 mM EGTA, 10 mM MnCl2, and 2 mM DTT. In the first step, each well receives 2 ul of test compound in 20% dimethylsulphoxide resulting in a 2% DMSO final concentration. Next, 8 ul of mTOR diluted in reaction buffer is added per well for a 60 ng/ml final concentration. To start the reaction, 10 ul of an ATP/GFP-4EBP1 mixture (diluted in reaction buffer) is added per well for a final concentration of 10 μM ATP and 0.5 μM GFP-4EBP1. The plate is sealed and incubated for 1 hour at room temperature. […] The plate is sealed, incubated for 1 hour at room temperature, and then read on a plate reader set up for LanthaScreen™ TR-FRET. Data is analyzed and IC50s are generated using GraphPad Prism 5.

[5] = molecular target: PI3K γ (Homo sapiens (Human), UniProt P48736); experiment: PI 3-Kinase (human) HTRF assay, p110γ
[6] = PI 3-Kinase (human) HTRF assay, p110δ/p85α; settings: read-out: PI3K γ IC50
Method: as §1

PI3K β, sequence (P42338 whole entry): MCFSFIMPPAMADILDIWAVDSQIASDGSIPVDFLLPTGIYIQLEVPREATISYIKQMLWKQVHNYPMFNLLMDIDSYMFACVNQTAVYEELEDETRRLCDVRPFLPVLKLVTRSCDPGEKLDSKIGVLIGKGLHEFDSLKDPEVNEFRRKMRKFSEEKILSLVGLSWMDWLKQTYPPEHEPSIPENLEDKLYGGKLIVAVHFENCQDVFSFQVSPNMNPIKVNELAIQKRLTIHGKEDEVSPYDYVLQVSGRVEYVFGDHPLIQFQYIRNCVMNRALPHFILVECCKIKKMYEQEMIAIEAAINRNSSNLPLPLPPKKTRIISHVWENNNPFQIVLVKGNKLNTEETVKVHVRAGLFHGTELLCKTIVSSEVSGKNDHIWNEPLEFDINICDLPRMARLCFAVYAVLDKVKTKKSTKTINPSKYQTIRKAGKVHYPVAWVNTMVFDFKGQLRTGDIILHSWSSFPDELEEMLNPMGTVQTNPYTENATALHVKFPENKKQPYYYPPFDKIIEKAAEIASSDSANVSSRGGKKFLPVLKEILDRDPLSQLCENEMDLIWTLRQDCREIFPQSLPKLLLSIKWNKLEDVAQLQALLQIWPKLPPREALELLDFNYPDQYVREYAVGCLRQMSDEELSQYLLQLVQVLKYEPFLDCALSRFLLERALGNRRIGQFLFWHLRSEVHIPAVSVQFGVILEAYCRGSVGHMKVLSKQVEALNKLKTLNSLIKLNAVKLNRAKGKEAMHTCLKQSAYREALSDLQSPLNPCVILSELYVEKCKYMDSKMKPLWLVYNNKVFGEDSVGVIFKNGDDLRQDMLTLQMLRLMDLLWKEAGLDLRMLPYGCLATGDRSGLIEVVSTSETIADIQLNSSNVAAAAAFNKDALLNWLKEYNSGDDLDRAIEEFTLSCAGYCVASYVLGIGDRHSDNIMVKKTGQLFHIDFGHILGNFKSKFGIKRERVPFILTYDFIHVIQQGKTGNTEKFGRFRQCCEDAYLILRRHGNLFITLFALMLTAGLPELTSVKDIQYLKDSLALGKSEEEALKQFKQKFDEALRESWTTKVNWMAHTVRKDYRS
PI3K β, sequence (P27986 whole entry partner): as the sequence (P27986 whole entry partner) above
PI3K α, sequence (P42336 whole entry): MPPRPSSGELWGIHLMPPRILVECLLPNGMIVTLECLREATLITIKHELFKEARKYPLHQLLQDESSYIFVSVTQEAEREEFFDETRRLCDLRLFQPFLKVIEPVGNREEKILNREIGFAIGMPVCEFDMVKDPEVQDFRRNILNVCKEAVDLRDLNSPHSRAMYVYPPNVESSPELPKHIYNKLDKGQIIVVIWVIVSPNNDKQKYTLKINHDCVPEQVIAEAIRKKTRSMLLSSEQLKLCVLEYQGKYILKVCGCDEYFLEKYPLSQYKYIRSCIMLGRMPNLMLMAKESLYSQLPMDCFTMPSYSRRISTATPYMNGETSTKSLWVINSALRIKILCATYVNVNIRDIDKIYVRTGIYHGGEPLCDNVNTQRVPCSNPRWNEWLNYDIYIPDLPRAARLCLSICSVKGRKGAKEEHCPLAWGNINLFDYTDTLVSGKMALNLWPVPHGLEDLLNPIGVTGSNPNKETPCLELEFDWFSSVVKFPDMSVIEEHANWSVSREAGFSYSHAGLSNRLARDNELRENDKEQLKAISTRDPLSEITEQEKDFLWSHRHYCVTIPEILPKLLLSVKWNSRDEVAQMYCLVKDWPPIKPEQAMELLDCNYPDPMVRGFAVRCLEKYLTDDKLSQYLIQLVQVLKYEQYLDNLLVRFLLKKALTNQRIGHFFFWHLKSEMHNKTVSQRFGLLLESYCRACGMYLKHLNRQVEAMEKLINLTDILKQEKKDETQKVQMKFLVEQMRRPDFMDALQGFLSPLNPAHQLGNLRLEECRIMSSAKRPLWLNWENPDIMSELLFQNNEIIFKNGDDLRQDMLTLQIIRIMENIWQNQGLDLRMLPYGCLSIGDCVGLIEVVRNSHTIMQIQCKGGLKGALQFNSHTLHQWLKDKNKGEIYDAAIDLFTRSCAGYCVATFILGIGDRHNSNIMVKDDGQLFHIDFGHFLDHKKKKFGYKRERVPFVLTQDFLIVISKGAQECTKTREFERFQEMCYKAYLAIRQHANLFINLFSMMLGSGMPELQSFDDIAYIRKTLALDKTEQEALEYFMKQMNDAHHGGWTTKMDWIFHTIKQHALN
PI3K α, sequence (P27986 whole entry partner): as the sequence (P27986 whole entry partner) above

| SMILES | IC50 [1] [nM] | IC50 [2] [µM] | IC50 [3] [µM] | IC50 [4] [µM] | IC50 ([5]; read-out: PI3K γ IC50) [nM] | IC50 [6] [µM] | IC50 ([5]; read-out: PI3K δ IC50) [nM] |
| --- | --- | --- | --- | --- | --- | --- | --- |
| C[C@H]1COCCN1C1CN(c2cnc3ccc(-c4ccc5oc(N)nc5c4)nc3n2)C1 | < 100 | > 10 | < 10 | > 10 |  |  |  |
| CC(C)(N)C(=O)N1CCN(c2cnc3ccc(-c4ccc5oc(N)nc5c4)nc3n2)CC1 | < 100 | < 10 | < 10 | > 10 | < 10000 |  |  |
| Cc1nc2ccc(-c3ccc4oc(N)nc4c3)nn2c1-c1ccncc1 | < 100 | < 1 | > 10 | < 1 | < 100 |  |  |
| CN1CC2CN(c3cnc4ccc(-c5ccc6oc(N)nc6c5)nc4n3)CC2C1 (stereo not drawn) | < 100 | < 1 | < 1 | > 10 | < 10000 |  |  |
| C[C@H]1CN(C2CN(c3cnc4ccc(-c5ccc6oc(N)nc6c5)nc4c3)C2)CCN1C | < 100 | < 10 | < 1 | > 10 | < 10000 |  |  |
| Nc1nc2cc(-c3ccc4ncc(N5CCNC(=O)C5)nc4c3)ccc2o1 | < 100 | < 1 | > 10 | > 10 | < 1000 |  |  |
| Nc1nc2cc(-c3ccc4ncc(N5CC(C(=O)N6CCOCC6)C5)nc4c3)ccc2o1 [drawing 359] | < 100 | < 1 | < 1 | < 10 | < 1000 |  |  |
| Nc1ccc2cc(-c3ccc4nccc(-c5ccncc5)c4c3)ccc2n1 [Compound 5] | < 1000 | > 10 | < 10 | < 1 | < 1000 |  |  |
| C[C@H]1CN(C2CN(c3cnc4ccc(-c5ccc6oc(N)nc6c5)nc4n3)C2)CCN1 | < 100 | > 10 | < 10 | < 10 | < 10000 |  |  |
| Nc1nc2cc(-c3ccc4ncc(N5CC(N6CCN(CC7CC7)CC6)C5)nc4n3)ccc2o1 | < 100 | < 10 | < 10 | > 10 | < 10000 |  |  |
| Cn1cc(-c2ccnc3ccc(-c4ccc5oc(N)nc5c4)cc23)cn1 [Compound 26] | < 100 |  | < 0.1 | < 1 | < 100 |  |  |
| CC(C)N1CCC(n2cnc3ccc(-c4ccc5oc(N)nc5c4)cc3c2=O)CC1 | < 100 | < 10 | > 10 | < 10 | < 10000 |  |  |
| Nc1nc2cc(-c3ccc4ncc(N5CC(N6CCOCC6)C5)cc4n3)ccc2o1 | < 100 | < 10 | < 10 | > 10 | < 1000 |  |  |
| Nc1nc2cc(-c3ccc4ncc(N5CC(N6CCN(CC7CC7)CC6)C5)cc4n3)ccc2o1 | < 100 | < 10 | < 1 | > 10 | < 10000 |  |  |
| Cn1c(=O)n(-c2ccc(C(C)(C)C#N)cc2)c2c3cc(-c4ccc5oc(N)nc5c4)ccc3ncc21 [Compound 7] | < 100 | < 0.1 | < 0.1 | < 0.1 | < 100 |  |  |
| CS(=O)(=O)N1CCN(Cc2cc3nc(-c4ccc5oc(N)nc5c4)nc(N4CCOCC4)c3s2)CC1 | < 100 | < 1 | < 1 | < 1 | < 100 |  |  |
| Nc1nc2cccc(-c3ccc4nccc(-c5ccncc5)c4c3)c2o1 [Compound 15] | < 100 | < 0.1 | < 1 | < 0.1 | < 1000 |  |  |
| Nc1nc2cc(-c3ccc4ncc(N5CCOCC5)nc4c3)ccc2o1 | < 100 | < 1 | > 10 | < 10 | < 100 |  |  |
| Nc1nc2cc(-c3ccc4ncc(-c5cccnc5)nc4c3)ccc2o1 | < 100 | > 10 | > 10 | < 10 | < 1000 |  |  |
| Nc1nc2cc(-c3ccc4ncnc(OC5CCOCC5)c4c3)ccc2o1 [Compound 47] | < 100 | < 1 | < 1 | < 0.1 | < 1000 |  |  |
| C[C@@H]1CN(C2CN(c3cnc4ccc(-c5ccc6oc(N)nc6c5)nc4c3)C2)CCN1C | < 100 | < 10 | < 1 | > 10 |  |  |  |
| Nc1nc2cc(-c3ccc4ncc(N5CC(N6CCOCC6)C5)nc4n3)ccc2o1 | < 100 | > 10 | < 10 | < 10 | < 10000 |  |  |
| Nc1nc2cc(-c3ccc4ncc(-c5ccc6nc(N)oc6c5)n4c3)ccc2o1 [Compound 50] | < 100 |  | < 10 | > 10 | < 100 |  |  |
| Nc1nc2cc(-c3ccc4ncc(OC5CCOCC5)nc4c3)ccc2o1 [Compound 49] | < 100 |  | < 10 | < 10 | < 1000 |  |  |
| CN1CCC(Nc2ncnc3ccc(-c4ccc5oc(N)nc5c4)cc23)CC1 [Compound 35] | < 100 |  | < 0.1 | < 10 | < 100 |  |  |

| SMILES | IC50 [1] [nM] | IC50 [2] [µM] | IC50 [3] [µM] | IC50 [4] [µM] | IC50 ([5]; read-out: PI3K γ IC50) [nM] | IC50 [6] [µM] | IC50 ([5]; read-out: PI3K δ IC50) [nM] |
| --- | --- | --- | --- | --- | --- | --- | --- |
| Nc1nc2cc(-c3ccc4ncn(C5CCOCC5)c(=O)c4c3)ccc2o1 | < 1000 |  | > 10 | > 10 | > 10000 |  |  |
| Nc1nc2cc(-c3ccc4ncc(-c5ccnc(N6CCOCC6)c5)n4c3)ccc2o1 [Compound 52] | < 100 |  | < 0.1 | < 10 | < 100 |  |  |
| Nc1nc2cc(-c3ccc4ncc(N5CC(N6CCOCC6)C5)nc4c3)ccc2o1 | < 100 | > 10 |  | < 1 |  | > 10 | < 10000 |
| N#Cc1cnc2ccc(-c3ccc4oc(N)nc4c3)cc2c1-c1ccncc1 [Compound 46] | < 100 |  | < 0.1 | < 0.1 | < 100 |  |  |
| Nc1nc2cc(-c3ccc4ncc(N5CCC(n6ccnc6)CC5)nc4c3)ccc2o1 | < 100 | < 1 |  | < 10 |  | < 1 | < 1000 |
| CC1(C)CN(C2CN(c3cnc4ccc(-c5ccc6oc(N)nc6c5)cc4n3)C2)CCN1 | < 100 | < 1 |  | < 0.1 |  | < 1 | < 1000 |
| CS(=O)(=O)Nc1cc(-c2ccc3ncc(C(=O)N4CCOCC4)n3c2)cnc1Cl | < 100 | < 0.1 |  | < 0.1 |  | < 0.1 | < 100 |
| Nc1nc2cc(-c3ccc4nccn4c3)ccc2o1 [Compound 40] | < 10000 |  | > 10 | < 10 | < 10000 |  |  |
| Cn1cc(-c2cnc3ccc(-c4ccc5oc(N)nc5c4)cn23)cn1 [Compound 41] | < 100 |  | < 1 | < 10 | < 1000 |  |  |
| Nc1nc2cc(-c3ccc4ncc(N5CC(N6CC[C@H](O)C6)C5)nc4c3)ccc2o1 | < 100 | < 1 |  | > 10 |  | < 10 | < 1000 |
| Nc1nc2cc(-c3ccc4ncc(N5CC(N6CC[C@@H](O)C6)C5)nc4c3)ccc2o1 | < 100 | < 10 |  | < 1 |  | < 10 | < 10000 |
| CN1CCC(n2cnc3ccc(-c4ccc5oc(N)nc5c4)cc3c2=O)CC1 [Compound 36] | < 100 |  | < 10 | < 10 | > 10000 |  |  |
| CN1CCN(c2ccc(-c3cnc4ccc(-c5ccc6oc(N)nc6c5)cn34)cn2)CC1 [Compound 42] | < 100 |  | < 1 | > 10 | < 1000 |  |  |
| CC(=O)Nc1ncc(-c2ccc3oc(N)nc3c2)s1 | < 10000 | > 10 |  | < 10 |  | < 10 | < 10000 |
| Cc1ccn(C2CN(c3cnc4ccc(-c5ccc6oc(N)nc6c5)cc4n3)C2)n1 | < 100 | < 10 |  | > 10 |  | < 10 | < 10000 |
| COC(=O)N1CCC(n2ncc3c(N4CCOCC4)nc(-c4ccc5oc(N)nc5c4)nc32)CC1 | < 1000 | < 10 |  | < 1 |  | > 10 | > 10000 |
| CN1CCN(C2CN(c3cnc4ccc(-c5ccc6oc(N)nc6c5)cc4n3)C2)CC1=O | < 100 | < 10 |  | > 10 |  | < 10 | < 1000 |
| CN1CCN(C(=O)c2cnc3ccc(-c4ccc5oc(N)nc5c4)cn23)CC1 [Compound 44] | < 100 |  | < 10 | < 10 | < 10000 |  |  |
| CN1CCN([C@@H]2CCN(c3cnc4ccc(-c5ccc6oc(N)nc6c5)cc4n3)C2)CC1 | < 100 | < 1 |  | < 10 |  | < 10 | > 10000 |
| Nc1nc2cc(-c3ccc4ncc(N5CC[C@H](O)C5)nc4c3)ccc2o1 | < 100 | < 1 |  | < 10 |  | > 10 | < 1000 |
| CN1CCN(C2CN(c3cnc4ccc(-c5ccc6oc(N)nc6c5)cc4n3)C2)CC1 | < 100 | < 10 |  | < 10 |  | < 10 | < 10000 |
| Nc1nc2cc(-c3ccc4ncc(N5CCN(C(=O)[C@@H](N)CO)CC5)nc4c3)ccc2o1 | < 100 | < 1 |  | < 10 |  | < 10 | < 10000 |
| O=C(c1cnc2ccc(-c3cnc(Cl)c(NS(=O)(=O)c4ccc(F)cc4F)c3)cn12)N1CCOCC1 | < 100 | < 0.1 |  | < 1 |  | < 0.1 | < 100 |
| Nc1nc2cc(-c3ccc4ncc(N5CCNC(C(F)(F)F)C5)nc4c3)ccc2o1 (stereo not drawn) | < 100 | < 1 |  | < 1 |  | < 10 | < 1000 |
